We go through 4 compounds from patent publication US11331299B2, “Medicinal use of serrulatane diterpenes” (The University of Sydney, priority 2016, dated 2022).

Like-named read-outs stand apart in the source and are kept apart here.

For one assay, the system named is H3K9 ac (increase). As to the kind of experiment: Cell-based stimulation assay. The settings on record: 10 μM.
A further assay deals with H3K27 ac (increase). As to the kind of experiment: Cell-based stimulation assay. The settings on record: 10 μM.
Assay [1] deals with sirtuin 1 (h) (activator effect) (Homo sapiens, UniProt Q96EB6). It is filed as biochemical. The note with it: 10 μM.
sirtuin 1 (h) (activator effect), sequence (Q96EB6 whole entry): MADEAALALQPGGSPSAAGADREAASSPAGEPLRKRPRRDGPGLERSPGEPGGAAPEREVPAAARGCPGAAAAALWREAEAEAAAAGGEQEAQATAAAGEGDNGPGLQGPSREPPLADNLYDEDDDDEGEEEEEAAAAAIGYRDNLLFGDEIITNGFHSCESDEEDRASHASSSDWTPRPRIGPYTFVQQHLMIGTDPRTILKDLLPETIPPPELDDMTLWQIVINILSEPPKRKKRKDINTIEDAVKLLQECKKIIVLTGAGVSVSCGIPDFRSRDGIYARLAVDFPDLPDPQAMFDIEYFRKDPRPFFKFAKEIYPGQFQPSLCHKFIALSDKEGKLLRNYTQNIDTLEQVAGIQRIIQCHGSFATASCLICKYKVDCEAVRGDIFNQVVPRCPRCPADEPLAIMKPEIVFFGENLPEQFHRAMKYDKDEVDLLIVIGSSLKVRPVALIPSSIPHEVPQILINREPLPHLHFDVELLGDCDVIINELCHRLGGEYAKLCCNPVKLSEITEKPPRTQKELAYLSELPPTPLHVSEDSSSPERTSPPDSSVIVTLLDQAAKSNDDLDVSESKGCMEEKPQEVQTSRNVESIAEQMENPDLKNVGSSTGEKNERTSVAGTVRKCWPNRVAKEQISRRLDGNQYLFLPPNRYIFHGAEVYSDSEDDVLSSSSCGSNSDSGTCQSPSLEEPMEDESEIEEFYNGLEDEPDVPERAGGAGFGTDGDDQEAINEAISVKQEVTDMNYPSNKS
Another assay addresses Deacetylase, Histone 3 (Homo sapiens, UniProt O15379). Kind of assay: Deacetylase, Histone 3 (PanLab). It is filed as biochemical. The settings on record: assay year 2014, read-out: % Control Response.
The next assay deals with Deacetylase, Histone 5 (Homo sapiens, UniProt Q9UQL6). Kind of assay: Deacetylase, Histone 5 (PanLab). It is filed as biochemical. The note with it: assay year 2014, read-out: % Control Response.
The next assay has as its target Deacetylase, Histone 7 (Homo sapiens, UniProt Q8WUI4). Kind of assay: Deacetylase, Histone 7 (PanLab). It is filed as biochemical. The note with it: assay year 2014, read-out: % Control Response.
A further assay has as its target Deacetylase, Histone 8 (Homo sapiens, UniProt Q9BY41). As to the kind of experiment: Deacetylase, Histone 8 (PanLab). It is filed as biochemical. The note with it: assay year 2014, read-out: % Control Response.
A further assay addresses Deacetylase, Histone 9 (Homo sapiens, UniProt Q9UKV0). Kind of assay: Deacetylase, Histone 9 (PanLab). It is filed as biochemical. The settings on record: assay year 2014, read-out: % Control Response.
Another assay has as its target Deacetylase, Histone 10 (Homo sapiens, UniProt Q969S8). As to the kind of experiment: Deacetylase, Histone 10 (PanLab). It is filed as biochemical. The settings on record: assay year 2014, read-out: % Control Response.
A further assay has as its target Deacetylase, Histone 11 (Homo sapiens, UniProt Q96DB2). Kind of assay: Deacetylase, Histone 11 (PanLab). It is filed as biochemical. The note with it: assay year 2014, read-out: % Control Response.
Assay [2] addresses Deacetylase, Sirtuin SIRT2 (Homo sapiens, UniProt Q8IXJ6). As to the kind of experiment: Deacetylase, Sirtuin SIRT2 (PanLab). Type of assay: biochemical. The settings on record: assay year 2014, read-out: % Control Response.
Assay [3] deals with Deacetylase, Sirtuin SIRT3 (Homo sapiens, UniProt Q9NTG7). As to the kind of experiment: Deacetylase, Sirtuin SIRT3 (PanLab). It is filed as biochemical. The settings on record: assay year 2014, read-out: % Control Response.
Deacetylase, Sirtuin SIRT3, sequence (Q9NTG7 whole entry): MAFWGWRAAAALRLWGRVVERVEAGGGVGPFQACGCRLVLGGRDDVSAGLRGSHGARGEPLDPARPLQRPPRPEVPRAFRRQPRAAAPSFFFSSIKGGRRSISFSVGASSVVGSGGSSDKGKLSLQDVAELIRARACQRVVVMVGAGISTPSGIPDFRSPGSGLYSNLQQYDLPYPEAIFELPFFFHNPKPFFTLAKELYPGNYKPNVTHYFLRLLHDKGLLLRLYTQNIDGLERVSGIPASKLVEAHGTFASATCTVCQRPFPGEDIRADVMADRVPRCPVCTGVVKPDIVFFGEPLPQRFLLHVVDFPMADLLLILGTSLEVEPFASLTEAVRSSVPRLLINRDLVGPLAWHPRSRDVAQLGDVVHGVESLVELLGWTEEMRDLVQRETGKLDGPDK
Assay [4] concerns the target Deacetylase, Sirtuin SIRT5 (Homo sapiens, UniProt Q9NXA8). As to the kind of experiment: Deacetylase, Sirtuin SIRT5 (PanLab). Type of assay: biochemical. The settings on record: assay year 2014, read-out: % Control Response.
The test system of assay [5] is Nitric Oxide Synthase, Endothelial (eNOS). As to the kind of experiment: Nitric Oxide Synthase, Endothelial (eNOS). The settings on record: 10 μM; assay year 2014. It is filed as biochemical.
Assay [6] addresses Nitric Oxide Synthase, Neuronal (nNOS) (Rattus norvegicus, UniProt P29476). Kind of assay: Nitric Oxide Synthase, Neuronal (nNOS). The settings on record: assay year 2014, read-out: % Control Response. Type of assay: biochemical.
The target in a further assay is Lipid Peroxidase. As to the kind of experiment: Lipid Peroxidase. The settings on record: concentration-response 10 to 0.01 μM. It is filed as biochemical, Dunkin Hartley Guinea pig.
The target in assay [7] is cholecystokinin CCK1 (CCKA) (h) (Homo sapiens, UniProt P32238). Kind of assay: Bioprint radioligand binding assay.
cholecystokinin CCK1 (CCKA) (h), sequence (P32238 whole entry): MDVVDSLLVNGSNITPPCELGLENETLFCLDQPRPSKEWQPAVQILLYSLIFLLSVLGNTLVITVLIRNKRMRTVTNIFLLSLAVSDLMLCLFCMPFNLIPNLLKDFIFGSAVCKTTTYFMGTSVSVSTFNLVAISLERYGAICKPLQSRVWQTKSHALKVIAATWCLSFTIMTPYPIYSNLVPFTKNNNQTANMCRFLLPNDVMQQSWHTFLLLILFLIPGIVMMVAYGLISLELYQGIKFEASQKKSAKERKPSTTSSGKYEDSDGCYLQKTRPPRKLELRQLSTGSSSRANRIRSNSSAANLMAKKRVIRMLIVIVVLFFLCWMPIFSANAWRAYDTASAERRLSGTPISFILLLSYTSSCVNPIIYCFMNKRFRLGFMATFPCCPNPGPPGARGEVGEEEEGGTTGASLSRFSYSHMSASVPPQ
Another assay has as its target PPARgamma (h) (Homo sapiens, UniProt P37231). Kind of assay: Bioprint radioligand binding assay.
In assay [8] the test system is human CD4-positive T-cells. As to the kind of experiment: T-cell viability/proliferation (assay number 1299). It is filed as cell-based.
Another assay concerns the target DNMT3B/DNMT3L (h) (Homo sapiens, UniProt Q9UBC3). The settings on record: read-out: Reference IC50; cited from earlier work.
The target in another assay is T1, EHMT1 (h) (Homo sapiens, UniProt Q9H9B1).
T1 sequence (Q9H9B1 1-1298): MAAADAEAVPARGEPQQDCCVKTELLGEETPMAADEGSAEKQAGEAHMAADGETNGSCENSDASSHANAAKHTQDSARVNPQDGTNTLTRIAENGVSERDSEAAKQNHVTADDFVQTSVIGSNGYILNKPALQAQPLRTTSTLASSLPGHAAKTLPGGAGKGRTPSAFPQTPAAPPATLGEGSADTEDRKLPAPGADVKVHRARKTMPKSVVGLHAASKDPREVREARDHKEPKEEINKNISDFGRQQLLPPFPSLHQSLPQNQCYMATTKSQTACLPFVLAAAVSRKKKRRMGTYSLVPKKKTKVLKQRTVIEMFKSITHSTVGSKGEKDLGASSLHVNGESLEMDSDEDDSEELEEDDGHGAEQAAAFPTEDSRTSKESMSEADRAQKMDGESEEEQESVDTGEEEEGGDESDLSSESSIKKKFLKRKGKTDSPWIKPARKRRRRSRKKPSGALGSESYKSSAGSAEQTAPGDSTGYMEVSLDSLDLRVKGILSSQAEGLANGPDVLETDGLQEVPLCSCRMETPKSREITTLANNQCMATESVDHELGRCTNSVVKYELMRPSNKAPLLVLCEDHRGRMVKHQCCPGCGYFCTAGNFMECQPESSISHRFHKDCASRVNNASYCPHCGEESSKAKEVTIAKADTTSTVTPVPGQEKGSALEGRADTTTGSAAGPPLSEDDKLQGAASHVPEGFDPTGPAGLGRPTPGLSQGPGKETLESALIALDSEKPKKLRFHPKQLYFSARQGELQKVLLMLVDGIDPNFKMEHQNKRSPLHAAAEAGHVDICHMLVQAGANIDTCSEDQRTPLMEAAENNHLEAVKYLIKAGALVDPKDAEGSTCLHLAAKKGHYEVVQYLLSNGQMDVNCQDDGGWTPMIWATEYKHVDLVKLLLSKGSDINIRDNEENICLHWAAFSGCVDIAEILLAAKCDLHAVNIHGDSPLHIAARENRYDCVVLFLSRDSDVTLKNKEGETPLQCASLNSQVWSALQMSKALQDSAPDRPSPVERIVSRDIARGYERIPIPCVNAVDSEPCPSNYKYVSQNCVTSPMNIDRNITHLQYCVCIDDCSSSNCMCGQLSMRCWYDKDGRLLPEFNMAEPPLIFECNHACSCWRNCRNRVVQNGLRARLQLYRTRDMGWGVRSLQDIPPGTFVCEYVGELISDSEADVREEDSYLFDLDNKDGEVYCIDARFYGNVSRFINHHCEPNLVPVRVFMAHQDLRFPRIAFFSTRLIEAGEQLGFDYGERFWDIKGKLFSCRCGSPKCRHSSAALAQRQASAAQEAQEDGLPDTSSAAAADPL
The note with it: read-out: Reference: IC50; cited from earlier work.

The next assay concerns the target SETD2(h) (Homo sapiens, UniProt Q9BYW2). The settings on record: read-out: Reference: (IC50 not given); cited from earlier work.
The mark [9] stands for this setting: read-out: % inhibition of control specific binding.

Deacetylase, Histone 8, sequence (Q9BY41 whole entry): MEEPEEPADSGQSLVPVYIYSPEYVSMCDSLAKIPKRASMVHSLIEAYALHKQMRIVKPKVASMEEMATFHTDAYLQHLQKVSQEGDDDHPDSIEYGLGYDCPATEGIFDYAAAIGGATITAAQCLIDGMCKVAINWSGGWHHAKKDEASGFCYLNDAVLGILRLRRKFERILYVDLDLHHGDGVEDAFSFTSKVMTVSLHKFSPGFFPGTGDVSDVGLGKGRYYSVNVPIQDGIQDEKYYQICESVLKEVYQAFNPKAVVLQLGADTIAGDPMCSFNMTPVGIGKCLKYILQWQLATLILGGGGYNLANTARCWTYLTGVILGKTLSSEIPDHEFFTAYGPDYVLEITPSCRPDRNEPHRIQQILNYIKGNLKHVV
Deacetylase, Histone 7, sequence (Q8WUI4 whole entry): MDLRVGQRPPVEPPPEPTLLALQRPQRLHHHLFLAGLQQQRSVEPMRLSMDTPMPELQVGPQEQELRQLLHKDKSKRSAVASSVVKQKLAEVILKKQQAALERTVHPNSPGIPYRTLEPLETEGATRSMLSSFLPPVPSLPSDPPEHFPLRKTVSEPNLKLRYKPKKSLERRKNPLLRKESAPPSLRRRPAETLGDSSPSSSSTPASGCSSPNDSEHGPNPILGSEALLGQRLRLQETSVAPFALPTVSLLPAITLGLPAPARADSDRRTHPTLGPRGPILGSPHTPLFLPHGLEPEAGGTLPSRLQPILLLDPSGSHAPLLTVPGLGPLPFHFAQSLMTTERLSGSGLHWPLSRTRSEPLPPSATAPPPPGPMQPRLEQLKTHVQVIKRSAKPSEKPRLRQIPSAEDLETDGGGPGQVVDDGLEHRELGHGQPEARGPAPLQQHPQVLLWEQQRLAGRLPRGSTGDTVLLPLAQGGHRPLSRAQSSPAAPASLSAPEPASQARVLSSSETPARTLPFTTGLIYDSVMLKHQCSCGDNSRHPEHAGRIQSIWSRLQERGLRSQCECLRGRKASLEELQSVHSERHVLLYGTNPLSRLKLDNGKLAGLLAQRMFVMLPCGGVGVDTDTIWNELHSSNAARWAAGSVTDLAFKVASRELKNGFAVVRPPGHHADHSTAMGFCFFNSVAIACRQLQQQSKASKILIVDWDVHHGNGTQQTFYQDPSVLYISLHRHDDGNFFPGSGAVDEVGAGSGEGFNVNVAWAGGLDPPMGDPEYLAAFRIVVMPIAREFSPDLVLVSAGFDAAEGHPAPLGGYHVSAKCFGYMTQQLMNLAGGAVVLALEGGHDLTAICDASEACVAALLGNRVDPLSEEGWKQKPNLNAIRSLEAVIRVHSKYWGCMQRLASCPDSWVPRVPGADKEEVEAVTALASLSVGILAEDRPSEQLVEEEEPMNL
Deacetylase, Histone 10, sequence (Q969S8 whole entry): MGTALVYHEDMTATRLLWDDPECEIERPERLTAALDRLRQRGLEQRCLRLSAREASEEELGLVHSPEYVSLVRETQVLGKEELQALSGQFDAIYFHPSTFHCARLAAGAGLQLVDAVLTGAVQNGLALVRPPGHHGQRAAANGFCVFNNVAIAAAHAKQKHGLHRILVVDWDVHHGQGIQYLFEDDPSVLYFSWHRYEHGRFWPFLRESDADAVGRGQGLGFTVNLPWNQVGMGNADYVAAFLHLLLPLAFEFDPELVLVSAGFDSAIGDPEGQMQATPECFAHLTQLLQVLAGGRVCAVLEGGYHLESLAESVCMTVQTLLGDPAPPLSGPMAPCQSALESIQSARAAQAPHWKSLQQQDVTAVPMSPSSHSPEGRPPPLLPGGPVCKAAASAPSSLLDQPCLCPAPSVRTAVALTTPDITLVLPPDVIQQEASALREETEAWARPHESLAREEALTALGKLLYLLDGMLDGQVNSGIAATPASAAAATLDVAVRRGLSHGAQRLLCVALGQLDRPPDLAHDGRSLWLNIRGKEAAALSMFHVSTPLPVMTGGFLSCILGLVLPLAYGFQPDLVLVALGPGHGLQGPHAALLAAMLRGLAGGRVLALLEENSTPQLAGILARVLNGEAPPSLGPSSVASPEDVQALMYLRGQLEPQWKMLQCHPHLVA
PPARgamma (h), sequence (P37231 whole entry): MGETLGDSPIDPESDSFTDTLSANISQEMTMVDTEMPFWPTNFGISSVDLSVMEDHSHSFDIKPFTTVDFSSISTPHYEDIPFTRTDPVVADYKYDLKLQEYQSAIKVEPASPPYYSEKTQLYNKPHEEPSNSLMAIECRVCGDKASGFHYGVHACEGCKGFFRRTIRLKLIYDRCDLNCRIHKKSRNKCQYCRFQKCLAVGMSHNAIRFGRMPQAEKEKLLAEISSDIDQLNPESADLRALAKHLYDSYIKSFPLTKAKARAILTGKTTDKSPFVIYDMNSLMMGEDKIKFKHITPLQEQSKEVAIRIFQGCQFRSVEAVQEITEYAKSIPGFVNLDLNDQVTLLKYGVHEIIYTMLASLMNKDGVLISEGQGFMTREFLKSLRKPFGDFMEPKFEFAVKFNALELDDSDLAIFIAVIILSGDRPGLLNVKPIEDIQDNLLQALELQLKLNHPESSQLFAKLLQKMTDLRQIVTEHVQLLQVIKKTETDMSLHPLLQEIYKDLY
Deacetylase, Histone 11, sequence (Q96DB2 whole entry): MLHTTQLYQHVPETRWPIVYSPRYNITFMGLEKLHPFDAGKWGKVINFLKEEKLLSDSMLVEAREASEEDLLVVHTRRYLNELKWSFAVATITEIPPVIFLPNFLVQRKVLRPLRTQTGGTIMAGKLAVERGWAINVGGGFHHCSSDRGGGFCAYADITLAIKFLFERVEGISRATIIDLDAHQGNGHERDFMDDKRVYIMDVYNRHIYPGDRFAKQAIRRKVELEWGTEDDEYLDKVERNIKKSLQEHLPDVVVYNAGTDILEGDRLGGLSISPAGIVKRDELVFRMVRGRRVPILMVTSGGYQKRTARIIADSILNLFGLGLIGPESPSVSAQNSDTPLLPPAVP
Deacetylase, Sirtuin SIRT2, sequence (Q8IXJ6 whole entry): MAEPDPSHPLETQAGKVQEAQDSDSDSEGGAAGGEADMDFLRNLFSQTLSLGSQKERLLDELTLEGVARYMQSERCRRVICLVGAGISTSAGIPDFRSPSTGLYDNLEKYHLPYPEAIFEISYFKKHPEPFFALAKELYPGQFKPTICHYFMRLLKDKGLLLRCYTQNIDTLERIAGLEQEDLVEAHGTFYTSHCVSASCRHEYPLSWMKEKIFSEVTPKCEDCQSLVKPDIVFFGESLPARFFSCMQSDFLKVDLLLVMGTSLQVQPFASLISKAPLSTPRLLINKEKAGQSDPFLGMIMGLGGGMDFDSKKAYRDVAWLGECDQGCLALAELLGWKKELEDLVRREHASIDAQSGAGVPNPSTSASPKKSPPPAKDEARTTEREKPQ

Take `CC(C)=CCC[C@H](CO)[C@@H]1CC[C@@H](C)c2c1cc(C)c(O)c2O` [Compound 1, 7,8,18-trihydroxyserrulat-14-ene]: the “% Stimulation Relative to Control” value was −21% in the assay with H3K9 ac (increase), −28% in the assay with H3K27 ac (increase) and −5% in assay [1]. Moreover, the remaining activity at 10 µM on Deacetylase, Histone 3 was -5%; at Deacetylase, Histone 5, -9%; at Deacetylase, Histone 7, 1%; at Deacetylase, Histone 8, 29%; on Deacetylase, Histone 9 it was -14%; at Deacetylase, Histone 10 it was 11%. Also, the remaining activity at 10 µM at Deacetylase, Histone 11 was 9%; in assay [2] it was 0%; in [3], -6%; in assay [4], -16%; in [6], 14%. The “% Control Response” value in assay [5] came to 6%. Further, the midpoint of inhibition at Lipid Peroxidase, the IC50, lay at 1470 nM. Further, the inhibition at 10 µM in assay [7] (CHOLECYSTOKININ CCK1 (CCKA) (h) (agonist radioligand), read-out: % Inhibition of Control Specific Binding) was determined as 81%; in [7] (setting [9]) it was 81%; at PPARgamma (h) (PPARgamma (h) (agonist radioligand), read-out: % Inhibition of Control Specific Binding), 91%; at PPARgamma (h) (setting [9]) it was 91%. The Emax in assay [8] (read-out: Inhibition of cell proliferation, Max Effect) came to 123%. In addition, the EC50 in assay [8] (read-out: Inhibition of cell proliferation, Rel EC50) was 587 nM.
Regarding `CC(C)=CCC[C@@H]1COc2c(C)cc(O)c3c2[C@H]1CC[C@H]3C` [Compound 3, 5,18-epoxy-8-hydroxyserrulat-14-ene], the figures for the “% Stimulation Relative to Control” value (with H3K9 ac (increase); in the assay with H3K27 ac (increase); in assay [1]) were −8%, −25% and −4%, respectively.
`CC(C)=CCC[C@@H]1C(O)Oc2c(C)cc(O)c3c2[C@H]1CC[C@H]3C` (stereo partly shown) [Compound 2, 5,18-epoxyserrulat-14-en-8,18-diol]: the remaining activity at 10 µM at Deacetylase, Histone 3 is 25%; on Deacetylase, Histone 5 it was -11%; at Deacetylase, Histone 7, -16%; at Deacetylase, Histone 8 it was 13%; on Deacetylase, Histone 9 it was -13%; at Deacetylase, Histone 10 it was 9%. The remaining activity at 10 µM at Deacetylase, Histone 11 is 5%; in assay [2], 26%; in [3] it was -9%; in [4] it was 24%; in [6] it was 5%. For the same compound, the “% Control Response” value in assay [5] is given as 5%.
For `Nc1ncnc2c1ncn2[C@@H]1O[C@H](CSCC[C@H](N)C(=O)O)[C@@H](O)[C@H]1O` [SAH], the IC50 is 45 nM at DNMT3B/DNMT3L (h), 180 nM on EHMT1 (h) and 1200 nM at SETD2(h).

A word on the IC50: it is the point on the concentration scale where inhibition reaches its midpoint. What is called inhibition is the change of the read-out against control, counted positive when it falls.
